Values joined by “and” are separate entries in the source; they are usually repeats but may differ in a detail not shown here. Equal values may be shown once. Read-outs that look alike come from different tables or passages of the source.
Columns and labels:
[1] = test system: glp-4(bn2) worms exposed to E. faecalis strain OG1RF; experiment: E. faecalis infection assay (liquid); assay type: in vivo, Caenorhabditis elegans; conditions: for E. faecalis EC: glp-4(bn2) worms, 80 h, ± 95% confidence interval
Method: (§1) Enterococcus faecalis and Staphylococcus aureus are Gram-positive bacterial species frequently responsible for nosocomial infections ([24], [25]). These bacterial species readily infect C. elegans and liquid-based pathogenesis models have been developed for each ([26][–][28]). Sterile, young adult glp-4(bn2) worms were incubated with either E. faecalis or S. aureus and various concentrations of the five compounds. […] Importantly, P. aeruginosa, E. faecalis, and S. aureus use very different mechanisms to kill C. elegans (pyoverdine-mediated mitochondrial damage, gelatinase-mediated damage to the colonized intestine, and multi-toxin-mediated intestinal effacement and damage, respectively) ([29][–][33]). The ability of these compounds to rescue against multiple pathogens that utilize a diverse set of virulence factors and mechanisms of pathogenesis further supports the idea that at least a portion of these compounds’ activity is mediated by stimulating innate immunity.
(§2) FIG 2 A subset of LK molecules rescue against E. faecalis and S. aureus. […] Compounds were serially diluted 2-fold, and young adult glp-4(bn2) worms were incubated with the pathogen for 80 h (E. faecalis) or 96 h (S. aureus). The concentrations shown are based on the mean value for at least three replicates. (B and C) Percentages of dead C. elegans after exposure to E. faecalis (B) or S. aureus (C). A representative biological replicate is shown. Each condition included at least six wells per replicate, each well contained approximately 20 worms. Three biological replicates were performed. *, P < 0.05; **, P < 0.01; ***, P < 0.001. P values were calculated using Student’s t test. Error bars represent the standard error of the mean.
The E. faecalis infection assay was performed as previously described ([27]). A single colony was used to inoculate a 5 ml of BHI liquid culture. After 16 to 24 h, 400 µl of this culture was spread on a BHI agar plate and placed at 37°C for 24 h. Next, 384-well plates were made containing 10% BHI, and E. faecalis was removed from the plate by scraping and resuspended in S Basal medium to a final OD of 0.03. Compounds at the desired concentrations or DMSO (final concentration, 1%) were then added to each well. After 3 days, the worms were transferred to new plates using a 0.05% Tween solution to prevent background fluorescence from E. faecalis biofilm. Subsequent washing, staining, imaging, and image analysis was performed identically to Pseudomonas liquid killing. EC values were defined as the minimum concentration that provided statistically significant rescue. At least three biological replicates were performed.

[2] = test system: glp-4(bn2) worms exposed to methicillin-resistant S. aureus strain MRSA131; experiment: S. aureus infection assay (liquid); assay type: in vivo, Caenorhabditis elegans; conditions: for S. aureus EC: glp-4(bn2) worms, 96 h, ± 95% confidence interval
Method: as §1, §2
The S. aureus killing assay was performed as previously described with some changes ([26]). A single colony was used to inoculate a 5-ml aerobic culture of TSB. The following day, 100 µl of this culture was used to inoculate a second 10 ml of TSB culture wrapped with parafilm. Then, 384-well plates were made containing 10% TSB, and S. aureus from the second culture was resuspended in S Basal medium to a final OD of 0.04. Compounds were then serially diluted in a DMSO-S Basal solution to achieve the desired concentration in the wells with a 1% DMSO final concentration for all compounds. After 5 days, the worms were transferred to new plates using a 0.05% Tween solution to prevent S. aureus biofilm background fluorescence from obscuring dead worms. Subsequent washing, staining, imaging, and image analysis were performed identically to Pseudomonas liquid killing. EC values were defined as the minimum concentration that provided statistically significant rescue. At least three biological replicates were performed.

[3] = test system: P. aeruginosa strain PA14; experiment: MIC assay (bacterial growth, no worms); assay type: cell-based, Pseudomonas aeruginosa; conditions: for MIC: Pseudomonas aeruginosa; for MIC / EC: ratio of MIC to EC, P. aeruginosa PA14
Method: For the first round of characterization, 69 novel small molecules previously selected on the basis of their ability to improve C. elegans survival during exposure to P. aeruginosa in liquid ([14]) were tested for the ability to interfere with bacterial growth. MICs were determined for each compound by growing P. aeruginosa strain PA14 in static culture in 384-well plates with serial 2-fold dilutions of compounds. No worms were used in these assays. Next, effective rescue concentrations (EC; defined as the minimum concentration that results in statistically significant survival, compared to dimethyl sulfoxide [DMSO]) ([15], [18]) were determined for each compound using the standard P. aeruginosa liquid killing assay. Sterile glp-4(bn2) worms were used in all liquid-based assays to limit artifacts (i.e., unlaid eggs will hatch and cause matricide).
Plates were allowed to grow for 24 h at 37°C without shaking. Growth was scored visually on the basis of turbidity. At least three biological replicates were performed.

[4] = P. aeruginosa PA14, LB media, static culture, no worms, read-out: MIC

| Structure (SMILES) | Need of MDT-15 for rescue (mdt-15(RNAi)) ([1]; E. faecalis, 32 µM) | E. faecalis EC [1] | Need of MDT-15 for rescue (mdt-15(RNAi)) ([2]; S. aureus, 32 µM) | S. aureus EC [2] | MIC [3, 4] [µM] | MIC / EC [3] | MIC ([3]; PA14) [µM] |
| --- | --- | --- | --- | --- | --- | --- | --- |
| O=c1cc(CNc2ccc(Br)cc2)nc2sccn12 [LK56] | required | 10.7 µM and 10.7 ± 3.3 µM | required | 56 µM and 56 ± 12.8 µM | > 595 | > 81.5 |  |
| CNC(=O)Oc1c(Br)cc2sc(=O)oc2c1Br [LK34] |  | 18.7 µM and 18.7 ± 8.7 µM |  | 42.7 µM and 42.7 ± 11.4 µM |  | > 56.1 | > 522 |
| CCN(CC)/N=N/c1ccc(C(=O)O)cc1 [LK35] |  | > 64 µM |  | > 64 µM | > 908 | > 52.4 |  |
| COC(=O)/C=C/C(=O)Nc1ccccc1 [LK32] |  | 8 µM and 8 ± 0.0 µM |  | > 64 µM | > 975 | > 30.5 |  |
| CN(C)/N=N/c1ccc(-c2cn(Cc3ccccc3)cn2)cc1 [LK38] |  | > 64 µM |  | > 64 µM | > 655 | > 97.8 |  |
